Test results published in patent US9409905B2, “Antibacterial compounds and methods for use” (PTC THERAPEUTICS, INC., priority 2011, dated 2016).
In brackets after ≈: the same amount, converted by molar mass.

Tests used:
[1] = system: Staphylococcus aureus (S. aureus) 29213; assay: Antibacterial activity, microbroth dilution MIC (Table 1); format: cell-based; details: microbroth dilution, Gram-positive S. aureus 29213, read-out: MIC, 29213
Description: (§1) The antibacterial activity from a microbroth dilution method may be presented as the minimum inhibitory concentration (MIC in μg/mL). The MIC value is the lowest concentration of drug which prevents macroscopically visible growth under test conditions.
(§2) Antibacterial activity of test compounds against the super sensitive Gram-negative Escherichia coli (E. coli) BAS849 bacterium, the control Gram-negative E. coli 25922 strain and the Gram-positive Staphylococcus aureus (S. aureus) 29213 bacterium are shown in Table 1.

[2] = system: Escherichia coli (E. coli) BAS849; assay: as above; format: cell-based; details: microbroth dilution, super sensitive Gram-negative E. coli BAS849, read-out: MIC, BAS849
Description: as §1, §2

E. coli 25922 = assay: as above; format: cell-based, Escherichia coli; details: Escherichia coli; microbroth dilution; control Gram-negative E. coli 25922 strain; read-out: MIC, 25922
Description: as §1, §2

E. coli LZ3111 = assay: Antibacterial activity, MIC, quinolone resistant strain (Table 2); format: cell-based; details: Escherichia coli, LZ3111, read-out: MIC LZ3111
Description: as §1
Mutations in these regions are known to confer a high level resistance to the quinolone class of antibiotics.

Row | Compound | MIC [1] | MIC [2] | MIC (E. coli 25922) | MIC (E. coli LZ3111)
1 | CCc1c(-c2ccc3c(c2)c(C)c(C)n3C)[nH]c(=O)c(C(=O)O)c1O [Cpd 30, 5-ethyl-4-hydroxy-2-oxo-6-(1,2,3-trimethyl-1H-indol-5-yl)-1,2-dihydropyridine-3-carboxylic acid] | 1 to 3.5 µg/mL (≈ 2.94 to 10.3 µM) | 1 to 3.5 µg/mL (≈ 2.94 to 10.3 µM) | 12.5 to 150 µg/mL (≈ 36.7 to 441 µM) | 12.5 to 150 µg/mL (≈ 36.7 to 441 µM)
2 | CC(C)c1c(-c2ccc3c(ccn3C)c2)[nH]c(=O)c(C(=O)O)c1O [Cpd 34, 4-hydroxy-5-isopropyl-6-(1-methyl-1H-indol-5-yl)-2-oxo-1,2-dihydropyridine-3-carboxylic acid] | 1 to 3.5 µg/mL (≈ 3.06 to 10.7 µM) | < 1 µg/mL | 3.5 to 12.5 µg/mL (≈ 10.7 to 38.3 µM) | 
3 | CCc1cc(C(=O)O)c(=O)[nH]c1-c1cc2cc(C(=O)O)n(C)c2cn1 [Cpd 54, 5-(5-carboxy-3-ethyl-6-oxo-1,6-dihydropyridin-2-yl)-1-methyl-1H-pyrrolo[2,3-c]pyridine-2-carboxylic acid] | 12.5 to 150 µg/mL (≈ 36.6 to 439 µM) | 1 to 3.5 µg/mL (≈ 2.93 to 10.3 µM) | 12.5 to 150 µg/mL (≈ 36.6 to 439 µM) | 12.5 to 150 µg/mL (≈ 36.6 to 439 µM)
4 | CCc1cc(C(=O)O)c(=O)[nH]c1-c1cnc2[nH]ccc2c1 [Cpd 55, 5-ethyl-2-oxo-6-(1H-pyrrolo[2,3-b]pyridin-5-yl)-1,2-dihydropyridine-3-carboxylic acid] | 12.5 to 150 µg/mL (≈ 44.1 to 529 µM) | 12.5 to 150 µg/mL (≈ 44.1 to 529 µM) | 12.5 to 150 µg/mL (≈ 44.1 to 529 µM) | 12.5 to 150 µg/mL (≈ 44.1 to 529 µM)
5 | CCc1cc(C(=O)O)c(=O)[nH]c1-c1ccc2c(c1)N(C)CCN2C [Cpd 56, 6-(1,4-dimethyl-1,2,3,4-tetrahydroquinoxalin-6-yl)-5-ethyl-2-oxo-1,2-dihydropyridine-3-carboxylic acid] | 12.5 to 150 µg/mL (≈ 38.2 to 458 µM) | 3.5 to 12.5 µg/mL (≈ 10.7 to 38.2 µM) | 12.5 to 150 µg/mL (≈ 38.2 to 458 µM) | 12.5 to 150 µg/mL (≈ 38.2 to 458 µM)
6 | CCc1cc(C(=O)O)c(=O)[nH]c1-c1ccc2nccnc2c1 [Cpd 57, 5-ethyl-2-oxo-6-(quinoxalin-6-yl)-1,2-dihydropyridine-3-carboxylic acid] | 12.5 to 150 µg/mL (≈ 42.3 to 508 µM) | 12.5 to 150 µg/mL (≈ 42.3 to 508 µM) | 12.5 to 150 µg/mL (≈ 42.3 to 508 µM) | 12.5 to 150 µg/mL (≈ 42.3 to 508 µM)
7 | CCc1cc(C(=O)O)c(=O)[nH]c1-c1cnc2c(c1)OCCN2C [Cpd 58, 5-ethyl-6-(4-methyl-3,4-dihydro-2H-pyrido[3,2-b][1,4]oxazin-7-yl)-2-oxo-1,2-dihydropyridine-3-carboxylic acid] | 12.5 to 150 µg/mL (≈ 39.6 to 476 µM) | 3.5 to 12.5 µg/mL (≈ 11.1 to 39.6 µM) | 12.5 to 150 µg/mL (≈ 39.6 to 476 µM) | 12.5 to 150 µg/mL (≈ 39.6 to 476 µM)
8 | CCc1cc(C(=O)O)c(=O)[nH]c1-c1cnc2c(c1)c(C#N)cn2C [Cpd 59, 6-(3-cyano-1-methyl-1H-pyrrolo[2,3-b]pyridin-5-yl)-5-ethyl-2-oxo-1,2-dihydropyridine-3-carboxylic acid] | 12.5 to 150 µg/mL (≈ 38.8 to 465 µM) | 12.5 to 150 µg/mL (≈ 38.8 to 465 µM) | 12.5 to 150 µg/mL (≈ 38.8 to 465 µM) | 12.5 to 150 µg/mL (≈ 38.8 to 465 µM)
9 | CCc1cc(C(=O)O)c(=O)[nH]c1-c1ccc2nc(CN(C)C)cn2c1.Cl.Cl [Cpd 60, 6-(2-((dimethylamino)methyl)imidazo[1,2-a]pyridin-6-yl)-5-ethyl-2-oxo-1,2-dihydropyridine-3-carboxylic acid dihydrochloride] | 12.5 to 150 µg/mL | 12.5 to 150 µg/mL | 12.5 to 150 µg/mL | 12.5 to 150 µg/mL
10 | CCc1cc(C(=O)O)c(=O)[nH]c1-c1ccc2nc(CN3CCCC3)cn2c1.Cl.Cl [Cpd 61, 5-ethyl-2-oxo-6-(2-(pyrrolidin-1-ylmethyl)imidazo[1,2-a]pyridin-6-yl)-1,2-dihydropyridine-3-carboxylic acid dihydrochloride] | 12.5 to 150 µg/mL | 12.5 to 150 µg/mL | 12.5 to 150 µg/mL | 12.5 to 150 µg/mL
11 | CCc1cc(C(=O)O)c(=O)[nH]c1-c1ccc2nc(CN3CCCCC3)cn2c1.Cl.Cl [Cpd 62, 5-ethyl-2-oxo-6-(2-(piperidin-1-ylmethyl)imidazo[1,2-a]pyridin-6-yl)-1,2-dihydropyridine-3-carboxylic acid dihydrochloride] | 12.5 to 150 µg/mL | 12.5 to 150 µg/mL | 12.5 to 150 µg/mL | 12.5 to 150 µg/mL
12 | CCc1cc(C(=O)O)c(=O)[nH]c1-c1ccc2nc(CN(CC)CC)cn2c1.Cl.Cl [Cpd 63, 6-(2-((diethylamino)methyl)imidazo[1,2-a]pyridin-6-yl)-5-ethyl-2-oxo-1,2-dihydropyridine-3-carboxylic acid dihydrochloride] | 12.5 to 150 µg/mL | 12.5 to 150 µg/mL | 12.5 to 150 µg/mL | 12.5 to 150 µg/mL
13 | CCc1cc(C(=O)O)c(=O)[nH]c1-c1cc2cc(CN3CCCC3)n(C)c2s1.Cl [Cpd 64, 5-ethyl-6-(6-methyl-5-(pyrrolidin-1-ylmethyl)-6H-thieno[2,3-b]pyrrol-2-yl)-2-oxo-1,2-dihydropyridine-3-carboxylic acid hydrochloride] | 12.5 to 150 µg/mL | < 1 µg/mL | 12.5 to 150 µg/mL | 12.5 to 150 µg/mL
14 | CCc1cc(C(=O)O)c(=O)[nH]c1-c1cc2cc(CN(C)C)n(C)c2s1.Cl [Cpd 65, 6-(5-((dimethylamino)methyl)-6-methyl-6H-thieno[2,3-b]pyrrol-2-yl)-5-ethyl-2-oxo-1,2-dihydropyridine-3-carboxylic acid hydrochloride] | 12.5 to 150 µg/mL | < 1 µg/mL | 3.5 to 12.5 µg/mL | 12.5 to 150 µg/mL
15 | CCc1cc(C(=O)O)c(=O)[nH]c1-c1ccc2c(c1)cc1n2CCNC1 [Cpd 66, 5-ethyl-2-oxo-6-(1,2,3,4-tetrahydropyrazino[1,2-a]indol-8-yl)-1,2-dihydropyridine-3-carboxylic acid] | 12.5 to 150 µg/mL (≈ 37.1 to 445 µM) | < 1 µg/mL | < 1 µg/mL | 12.5 to 150 µg/mL (≈ 37.1 to 445 µM)
